Where two headings read alike, the source gives them in different places. No end group written: not given here.
Tests used:
Y4R [1] = settings: cited from earlier work
Y1R = settings: cited from earlier work
Y2R [2] = settings: cited from earlier work
Y4R [3] = settings: cited from earlier work; remark: listed apart in the source
Y2R [4] = target: T1, Y2R (Homo sapiens, UniProt P49146); assay type: binding; settings: high- and low-affinity state
T1 sequence (P49146 1-381): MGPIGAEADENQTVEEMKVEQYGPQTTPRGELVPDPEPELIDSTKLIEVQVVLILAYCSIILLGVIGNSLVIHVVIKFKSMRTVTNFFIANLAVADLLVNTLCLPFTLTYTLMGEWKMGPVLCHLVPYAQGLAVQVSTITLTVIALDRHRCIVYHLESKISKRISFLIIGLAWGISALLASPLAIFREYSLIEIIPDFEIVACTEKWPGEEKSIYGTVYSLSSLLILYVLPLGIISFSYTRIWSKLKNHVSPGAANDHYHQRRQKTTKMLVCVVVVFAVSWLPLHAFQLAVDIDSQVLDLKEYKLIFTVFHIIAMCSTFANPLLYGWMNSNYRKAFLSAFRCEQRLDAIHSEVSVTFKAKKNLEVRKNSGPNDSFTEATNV

[5] = target: Nluc-Y1R, wild type (human) (UniProt P25929); experiment: FRET or BRET
Nluc-Y4R Q^5.46A (human) = Nluc-Y4R Q^5.46A (human) (UniProt P50391); experiment: FRET or BRET
[6] = target: Nluc-Y4R, wild type (human) (UniProt P50391); experiment: FRET or BRET
[7] = target: Nluc-Y4R, wild type (human) (UniProt P50391); experiment: FRET or BRET; remark: listed apart in the source

Nluc-Y4R, wild type (human), sequence (P50391 whole entry): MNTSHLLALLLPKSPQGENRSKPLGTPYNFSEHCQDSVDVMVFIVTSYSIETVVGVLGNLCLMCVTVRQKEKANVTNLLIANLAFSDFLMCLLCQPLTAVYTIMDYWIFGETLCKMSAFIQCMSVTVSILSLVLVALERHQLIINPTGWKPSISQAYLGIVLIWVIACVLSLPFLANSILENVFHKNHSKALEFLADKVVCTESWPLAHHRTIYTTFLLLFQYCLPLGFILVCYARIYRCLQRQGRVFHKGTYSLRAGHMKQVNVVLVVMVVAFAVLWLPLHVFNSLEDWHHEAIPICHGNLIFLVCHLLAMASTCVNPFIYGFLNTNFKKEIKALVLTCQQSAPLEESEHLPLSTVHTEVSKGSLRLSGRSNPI
Nluc-Y4R Q^5.46A (human), sequence (P50391 whole entry): as above
Nluc-Y1R, wild type (human), sequence (P25929 whole entry): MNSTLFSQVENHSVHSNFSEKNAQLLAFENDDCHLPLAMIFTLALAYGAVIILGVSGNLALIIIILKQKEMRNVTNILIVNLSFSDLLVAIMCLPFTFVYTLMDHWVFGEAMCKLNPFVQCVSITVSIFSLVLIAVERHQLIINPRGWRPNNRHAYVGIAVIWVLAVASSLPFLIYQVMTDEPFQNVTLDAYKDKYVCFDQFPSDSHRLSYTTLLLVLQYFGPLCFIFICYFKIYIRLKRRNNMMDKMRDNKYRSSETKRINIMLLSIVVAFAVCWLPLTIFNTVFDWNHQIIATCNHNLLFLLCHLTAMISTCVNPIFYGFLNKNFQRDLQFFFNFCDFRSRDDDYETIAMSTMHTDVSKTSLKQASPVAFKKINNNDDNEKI

## NPY mutant T32A
Y4R [1]
  binding affinity: loss of binding affinity
Y1R; Y1R
  binding affinity: loss of binding affinity
Y2R [2]
  binding affinity: loss of binding affinity

## NPY(22–36): N-terminally truncated NPY analog
Y2R [2]
  affinity: subnanomolar affinity

## Q34P-substituted analog of NPY
Y4R [1]
  binding: improved binding
Y1R; Y1R
  affinity: wild-type affinity
Y1R; Y1R, exchange of Q34 by proline
  binding affinity: unchanged binding affinity
Y2R [2]
  binding: not tolerated

## NPY(2–36): truncated NPY analog
Y1R; Y1R
  reduction of affinity and activity, respectively: more than 50 fold

## PP(2–36): N-terminally truncated PP (PLEPVYPGDNATPEQMAQYAADLRRYINMLTRPRY; ends and bridges not checked; UniProt P01298 31-65, looked up, fragment)
Y4R [3]
  functional impairment: limited functional impairment

## Q34G variant of NPY
Y1R; Y1R
  loss of binding affinity compared to NPY: 15 fold

## PYY: 36-residue C-terminally amidated neuropeptide
Y1R; Y1R F286A
  binding: marked loss

## NPY(3–36): N-terminally truncated NPY analog
Y1R; Y1R
  reduction of affinity and activity, respectively: more than 50 fold
Y2R [2]
  affinity: subnanomolar affinity

## NPY(13–36): N-terminally truncated NPY analog
Y2R [2]
  affinity: subnanomolar affinity

## CCN(CC)C(=O)C(c1ccccc1)N1CCN(c2ccc(NC(=O)c3ccccc3-c3cccnc3)cc2F)CC1 (stereo not drawn) [JNJ-31020028]
Y2R [4]
  affinity (Ki) in both states: essentially the same affinity

## K18(TAMRA)-NPY (peptide)
[5]
  KD,2 (low-affinity state): 126 nM

## NPY(18–36): N-terminally truncated NPY analog
Y2R [2]
  affinity: subnanomolar affinity

## K22(TAMRA),Nle17,30-PP (peptide)
Nluc-Y4R Q^5.46A (human)
  fold reduction of affinity against wild-type Y4R: 100 fold
[6]
  KD,1 (high-affinity state): 18 nM
[7]
  KD,1 (high-affinity state): 26 nM

— article PMC9067930 (Science Advances, 2022)
